Values quoted from earlier work, collected in EP1085805B1, “USE OF AT LEAST ONE ACID FROM THE CITRIC ACID CYCLE COMBINED WITH GLYCERINE AS A PESTICIDE” (Biolink Technologies AG, priority 1998, dated 1999).

Compound | LD50 Wert Ratte oral
ClC1=C(Cl)[C@]2(Cl)[C@@H]3[C@@H]4C[C@@H]([C@H]5O[C@@H]45)[C@@H]3[C@@]1(Cl)C2(Cl)Cl [Dieldrin] | 56 mg/kg Körpergewicht
Cl[C@H]1[C@H](Cl)[C@@H](Cl)[C@@H](Cl)[C@H](Cl)[C@H]1Cl [Lindan] | 88 mg/kg Körpergewicht
